Measurements as given in paper PMC2635431 (Journal of pharmaceutical sciences, 2009).

Tests used:
[1] = test system: human epidermal membrane (HEM); assay: Passive transport of corticosterone; assay type: in vitro ADME; details: CS lipoidal pathway permeability vs PBS control (Eq. 3)
[2] = test system: human epidermal membrane (HEM); assay: Evaluation of direct enhancer treatment time on CS permeability of HEM; assay type: in vitro ADME; details: direct treatment 1, 4, 20 min; p > 0.05, t-test
[3] = test system: human epidermal membrane (HEM); assay: Enhancer depletion and recovery of HEM barrier; assay type: in vitro ADME; details: Protocol II, enhancer depletion in PBS
[4] = experimental, from the literature; cited from earlier work
[5] = Corticosterone solubility in enhancer-PBS solution relative to PBS; details: enhancer concentration of Protocol I, 37°C

CCCCCCCCCCCO [UD, Undecan-1-ol]
Enhancement Ratio (Emax) ([1]; Protocol II): 17 ± 2 | effect of treatment time on permeability coefficients of CS [2]: did not significantly affect

CCCCCCCCCCCCCC(=O)OC(C)C [IPM, Propan-2-yl tetradecanoate]
Enhancement Ratio (Emax) ([1]; Protocol II): 2.8 ± 0.2 | Enhancement Ratio (Emax) ([1]; Protocol III): 3.3 ± 1.1 | effect of treatment time on permeability coefficients of CS [2]: did not significantly affect

CCCCCCCCCCCCN1CCCC1=O [DoP, 1-Dodecyl-2-pyrrolidinone]
Enhancement Ratio (Emax) ([1]; Protocol III): 14 ± 6

CCCCC(CC)COC(=O)c1ccccc1O (centres unmarked) [OS, 2-Ethylhexyl 2-hydroxybenzoate]
Enhancement Ratio (Emax) ([1]; Protocol II): 5.0 ± 3.6 | effect of treatment time on permeability coefficients of CS [2]: did not significantly affect

CCCCC(CC)COC(=O)c1ccc(N(C)C)cc1 (centres unmarked) [PADO, 2-Ethylhexyl 4-(dimethylamino) benzoate]
Enhancement Ratio (Emax) ([1]; Protocol II): 4.1 ± 0.7 | Enhancement Ratio (Emax) ([1]; Protocol III): 3.8 ± 1.1 | effect of treatment time on permeability coefficients of CS [2]: did not significantly affect

CCCCCCCC/C=C\CCCCCCCCO [OA, (Z)-Octadec-9-en-1-ol]
Enhancement Ratio (Emax) ([1]; Protocol II): 5.5 ± 1.5 | effect of treatment time on permeability coefficients of CS [2]: did not significantly affect

CCCCCCCCN1CCCC1=O [OP, 1-Octyl-2-pyrrolidinone]
Enhancement Ratio (Emax) ([1]; Protocol III): 16 ± 6 | time for HEM permeability to return to the PBS control value [3]: approximately 6 h

COc1ccc(O)c(C(C)(C)C)c1 [BHA, 1,1-Dimethylethyl-4-methoxy phenol]
log Koct [4]: 3.14 ^b^53 | CS Solubility Ratio (enhancer/PBS solution vs PBS) [5]: 1.16 ± 0.03

CCCCCCCCO [OC, 1-Octanol]
Enhancement Ratio (Emax) ([1]; Protocol III): 18 ± 2 | time for HEM permeability to return to the PBS control value [3]: approximately 6 h

OCCOc1ccccc1 [PHE, 2-Phenoxy-1-ethanol]
time for HEM permeability to return to the PBS control value [3]: less than 2 h
